Consider one molecule from patent US20180344702A1, “METHODS FOR TREATING PATIENTS WITH HEMATOLOGIC MALIGNANCIES” (Aptose Biosciences, Inc., priority 2017, published 2018).

The subject of assay [1] is KG-1 cells. Kind of assay: Cell-cycle dysregulation (flow cytometry). In kind it is cell-based. The note with it: dose-dependent. The method, then: (§1) Cell-cycle analysis: Cells were treated with vehicle, DMSO or Compound 7 and were stained with PI and EdU, and then analyzed by flow cytometry to determine the phases of cell cycle.
The test system of assay [2] is isogenic BA/F3 cells with FLT3 mutations. The assay can be described thus: Cell-cycle dysregulation (flow cytometry). The assay is classed as cell-based. The note with it: dose-dependent. The method, then: as §1
For assay [3], the system named is NOMO-1 cells. The assay can be described thus: Cell-cycle dysregulation (flow cytometry). The assay is classed as cell-based. The note with it: dose-dependent. The method, then: as §1
Assay [4] has as its system FLT3 pathway in MV4-11 cells. Kind of assay: Western blot analysis in MV4-11 cells. The note with it: FIG. 1. The assay is classed as cell-based, human. The method, then:
(§2) Immunoblot assays: Cells were treated with Compound 7 at various concentrations and collected for cell lysates. The total and phosphorylated levels of the indicated proteins were determined by Western Blot.

Assay [5] relates to BTK pathway in MV4-11 cells. Kind of assay: Western blot analysis in MV4-11 cells. The note with it: 0.5, 5.0, and 50 nM, FIG. 2. The assay is classed as cell-based, human. The method, then: as §2
In assay [6] the test system is Aurora kinase in FLT3 WT cells (KG-1). Kind of assay: Cell signaling Western blot. The assay is classed as cell-based. The note with it: KG-1 cells, FIGS. 25A-25B. The method, then: as §2
For assay [7], the system named is PDGFRA and FLT3 (WT) signaling in EOL-1 cells. The assay can be described thus: Cell signaling Western blot. The assay is classed as cell-based. The method, then:
as §2

In assay [8] the test system is MV4-11. The assay can be described thus: Cytotoxicity in high serum conditions (MTS). The note with it: MV4-11, 72 hours, 10% vs 30%, 50%, 80% FBS. In kind it is cell-based, human. The method, then:
(§3) Compound 7 was tested in a dose-dependent manner at different serum concentrations. […] In this experiment, MV4-11 (n=6) and EOL-1(n=3˜6) cells were treated with or without Compound 7 for 72 hours in medium containing normal (10%) or high serum (30%, 50%, 80%) FBS with an MTS assay serving as an end point.

Assay [9] concerns the target FLT3(WT) (Homo sapiens, UniProt P36888). Kind of assay: Inhibition of FLT3, kinase IC50. The assay is classed as biochemical. The method, then: RBC HotSpot Kinase Assay Protocol:
Reagents used: Base Reaction buffer; 20 mM Hepes (pH 7.5), 10 mM MgCl2, 1 mM EGTA, 0.02% Brij35, 0.02 mg/ml BSA, 0.1 mM Na3VO4, 2 mM DTT, 1% DMSO. Required cofactors are added individually to each kinase reaction.
Compound 7 was dissolved in 100% DMSO to a specified concentration. The serial dilution was conducted by epMotion 5070 in DMSO. The substrate was freshly prepared in Reaction Buffer and any required cofactors to the substrate solution were added. The kinase was added to the solution and gently mixed. Compound 7 was added in 100% DMSO into the kinase reaction mixture by Acoustic technology (Echo550; nanoliter range), and incubated for 20 min at room temperature. ^33P-ATP (Specific activity 10 μCi/μl) was added into the reaction mixture to initiate the reaction, which was incubated for 2 hours, whereupon kinase activity was detected by the filter-binding method.

In assay [10] the target is T1, FLT3(D835Y) (Homo sapiens, UniProt P36888, D835Y).
T1 construct: made in house; host or cells: E. coli BL21-derived host (T7 phage) or HEK-293
The assay can be described thus: Binding constant (Kd), competition binding with qPCR readout.

The subject of assay [11] is MOLM-13 cells. Kind of assay: Cell-cycle analysis (flow cytometry). The note with it: dose-dependent. The assay is classed as cell-based, human. The method, then: as §1
Assay [12] concerns EOL-1. The assay can be described thus: Cytotoxicity in high serum conditions (MTS). The assay is classed as cell-based. The note with it: EOL-1, 72 hours, 10% vs 30%, 50%, 80% FBS. The method, then: as §3
The subject of assay [13] is MV4-11 cells. The assay can be described thus: Apoptosis of MV4-11 cells (Annexin V, Western blot). The assay is classed as cell-based, human. The method, then:
The data presented in FIGS. 7A-7C, FIGS. 8A-8B, and FIGS. 17A-17J were generated using well-known protocols for measuring apoptosis, which are readily apparent to a skilled artisan. Without being bound by any theory, an overview of the procedure can be found in, for example, Rieger et al., Modified Annexin V/Propidium Iodide Apoptosis Assay For Accurate Assessment of Cell Death, J VI. Exp. 2011; (50): 2597.
IC50s and EC50s: Certain cell viability studies described herein were assessed using the Tryptan blue dye exclusion method or the MTS assay. Certain apoptosis studies and related studies described herein were determined via FACS by annexin V positivity.

Assay [14] concerns Ba/F3-D835Y (FLT3-D835Y). The assay can be described thus: Antiproliferative activity (Table 6). The assay is classed as cell-based, Murin. The note with it: 72 h.

For `Cc1cnc(-c2ccc(-c3ccc(NC(=O)Nc4c(F)cc(F)cc4F)cc3F)c3c2C(=O)NC3)[nH]1` [Compound 7, 1-{3-fluoro-4-[7-(5-methyl-1H-imidazol-2-yl)-1-oxo-2,3-dihydro-1H-isoindol-4-yl]-phenyl}-3-(2,4,6-trifluorophenyl)urea], the Cell-cycle dysregulation result in assay [1], in assay [2] and in [3] was “induce cell-cycle dysregulation” in each case. Also, the “Inhibition of FLT3 pathway (Western blot)” value in assay [4] was “inhibits FLT3 pathway”. For the same molecule, the “Inhibition of BTK pathway (Western blot)” value in assay [5] is given as “inhibits BTK pathway”. In assay [6], the “Aurora kinase activity and signaling (Western blot)” value was “inhibits Aurora kinase activity and signaling”. Further, the “PDGFRA and FLT3 (WT) signaling (Western blot)” value in assay [7] is “inhibits PDGFRA and FLT3 (WT) signaling”. The “Activity at high serum concentration” value in assay [8] and in assay [12] was “retains high activity at high serum concentration” each time. In addition, the IC50 stood at 8.75 nM in [9] and 8.26 nM in [14]. Also, the affinity in assay [10], expressed as Kd, was 4.2 nM. Moreover, in assay [11], the G0/G1 cell-cycle arrest result is “induce G0/G1 cell-cycle arrest”. Moreover, in assay [13] (MV4-11 cells, 1, 3, 6, 24 hour), the “Time dependency of apoptosis” value is recorded as “induces apoptosis in a time dependent manner”. Further, the Apoptosis induction entry in [13] (MV411 cells, 24 hours, various concentrations) is listed as “induces apoptosis”.
